According to the NIST ThermoML archive (doi:10.1021/je500594z):

Assay: xn = mol fraction of the nth substance listed
Settings: 101 kPa, Liquid; for viscosity: Falling or rolling sphere viscometry; for speed of sound: Sing-around technique in a fixed-path interferometer; for mass density: Vibrating tube method

CCCCCC[n+]1ccn(C)c1.O=S(=O)([N-]S(=O)(=O)C(F)(F)F)C(F)(F)F + CCO
Settings | mass density [kg/m3] | speed of sound [m/s] | viscosity [mPa·s]
278.15 K, x1 = 0.047 | 933.23 | 1208.7 | 2.69
278.15 K, x1 = 0.097 | 1026.67 | 1211.4 | 4.32
278.15 K, x1 = 0.198 | 1146.24 | 1222.7 | 9.53
278.15 K, x1 = 0.292 | 1215.04 | 1233.9 | 16.27
278.15 K, x1 = 0.39 | 1263.14 | 1242.8 | 25.73
278.15 K, x1 = 0.47 | 1292.55 | 1250.3 | 35.73
278.15 K, x1 = 0.596 | 1327.21 | 1258.1 | 56.91
278.15 K, x1 = 0.694 | 1347.34 | 1262.6 | 79.17
278.15 K, x1 = 0.799 | 1364.86 | 1267.2 | 112.54
278.15 K, x1 = 0.903 | 1379.2 | 1271.2 | 154.54
278.15 K, x1 = 1 | 1390.3 | 1274.6 | 211.31
298.15 K, x1 = 0.047 | 915.22 | 1145.7 | 1.73
298.15 K, x1 = 0.097 | 1008.17 | 1152.5 | 2.61
298.15 K, x1 = 0.198 | 1127.27 | 1168.4 | 4.98
298.15 K, x1 = 0.292 | 1195.96 | 1181.9 | 7.97
298.15 K, x1 = 0.39 | 1244.05 | 1192.3 | 12.1
298.15 K, x1 = 0.47 | 1273.5 | 1200.6 | 15.94
298.15 K, x1 = 0.596 | 1308.27 | 1209.2 | 23.72
298.15 K, x1 = 0.694 | 1328.48 | 1214.1 | 31.3
298.15 K, x1 = 0.799 | 1346.07 | 1218.9 | 41.44
298.15 K, x1 = 0.903 | 1360.48 | 1223.1 | 53.7
298.15 K, x1 = 1 | 1371.64 | 1226.8 | 70.46
318.15 K, x1 = 0.047 | 896.92 | 1085 | 1.18
318.15 K, x1 = 0.097 | 989.44 | 1095.9 | 1.71
318.15 K, x1 = 0.198 | 1108.22 | 1116.3 | 3.05
318.15 K, x1 = 0.292 | 1176.89 | 1131.9 | 4.64
318.15 K, x1 = 0.39 | 1225.05 | 1143.8 | 6.7
318.15 K, x1 = 0.47 | 1254.61 | 1153 | 8.61
318.15 K, x1 = 0.596 | 1289.55 | 1162.6 | 12.33
318.15 K, x1 = 0.694 | 1309.88 | 1168 | 15.72
318.15 K, x1 = 0.799 | 1327.59 | 1173.4 | 20.13
318.15 K, x1 = 0.903 | 1342.08 | 1178 | 24.94
318.15 K, x1 = 1 | 1353.31 | 1182 | 30.22
338.15 K, x1 = 0.047 | 878.04 | 1025.6 | –
338.15 K, x1 = 0.097 | 970.28 | 1040.6 | –
338.15 K, x1 = 0.198 | 1088.96 | 1065.5 | –
338.15 K, x1 = 0.292 | 1157.75 | 1083.5 | –
338.15 K, x1 = 0.39 | 1206.1 | 1097 | –
338.15 K, x1 = 0.47 | 1235.83 | 1107.2 | –
338.15 K, x1 = 0.596 | 1271.01 | 1118 | –
338.15 K, x1 = 0.694 | 1291.5 | 1124 | –
338.15 K, x1 = 0.799 | 1309.35 | 1130 | –
338.15 K, x1 = 0.903 | 1323.94 | 1135.2 | –
338.15 K, x1 = 1 | 1335.25 | 1139.3 | –

CCCC[n+]1ccn(C)c1.O=S(=O)([N-]S(=O)(=O)C(F)(F)F)C(F)(F)F + CCO
Settings | mass density [kg/m3] | speed of sound [m/s] | viscosity [mPa·s]
278.15 K, x1 = 0.049 | 939.65 | 1204.6 | 2.64
278.15 K, x1 = 0.096 | 1032.42 | 1204.5 | 3.8
278.15 K, x1 = 0.194 | 1162.65 | 1213.9 | 7.4
278.15 K, x1 = 0.288 | 1241.69 | 1225.4 | 12.59
278.15 K, x1 = 0.39 | 1300.98 | 1237.1 | 18.82
278.15 K, x1 = 0.484 | 1340.75 | 1245.5 | 26.93
278.15 K, x1 = 0.591 | 1375.63 | 1253.5 | 38
278.15 K, x1 = 0.696 | 1401.82 | 1260 | 52.96
278.15 K, x1 = 0.818 | 1426.17 | 1266.3 | 77.99
278.15 K, x1 = 0.9 | 1439.65 | 1269.8 | 99.43
278.15 K, x1 = 1 | 1453.69 | 1273.8 | 139.82
298.15 K, x1 = 0.049 | 921.49 | 1142.4 | 1.71
298.15 K, x1 = 0.096 | 1013.65 | 1146.4 | 2.35
298.15 K, x1 = 0.194 | 1143.26 | 1160.7 | 4.13
298.15 K, x1 = 0.288 | 1222.07 | 1174.6 | 6.64
298.15 K, x1 = 0.39 | 1281.27 | 1188 | 9.5
298.15 K, x1 = 0.484 | 1321.04 | 1197.4 | 12.92
298.15 K, x1 = 0.591 | 1355.98 | 1206.2 | 17.3
298.15 K, x1 = 0.696 | 1382.23 | 1213.2 | 22.86
298.15 K, x1 = 0.818 | 1406.65 | 1219.8 | 31.21
298.15 K, x1 = 0.9 | 1420.19 | 1223.6 | 38.05
298.15 K, x1 = 1 | 1434.23 | 1227.5 | 51.22
318.15 K, x1 = 0.049 | 903.02 | 1082 | 1.18
318.15 K, x1 = 0.096 | 994.64 | 1090 | 1.57
318.15 K, x1 = 0.194 | 1123.77 | 1109.1 | 2.61
318.15 K, x1 = 0.288 | 1202.45 | 1125.5 | 3.95
318.15 K, x1 = 0.39 | 1261.65 | 1140.5 | 5.62
318.15 K, x1 = 0.484 | 1301.51 | 1150.8 | 7.52
318.15 K, x1 = 0.591 | 1336.54 | 1160.7 | 9.76
318.15 K, x1 = 0.696 | 1362.91 | 1168.3 | 12.42
318.15 K, x1 = 0.818 | 1387.44 | 1175.6 | 16.16
318.15 K, x1 = 0.9 | 1401.04 | 1179.7 | 19.03
318.15 K, x1 = 1 | 1415.13 | 1184 | 24.36
338.15 K, x1 = 0.049 | 883.95 | 1022.5 | 0.85
338.15 K, x1 = 0.096 | 975.18 | 1034.5 | 1.12
338.15 K, x1 = 0.194 | 1104.04 | 1058.5 | 1.79
338.15 K, x1 = 0.288 | 1182.73 | 1077.4 | 2.71
338.15 K, x1 = 0.39 | 1242.06 | 1094.2 | 3.7
338.15 K, x1 = 0.484 | 1282.08 | 1105.8 | 4.86
338.15 K, x1 = 0.591 | 1317.28 | 1116.5 | 6.26
338.15 K, x1 = 0.696 | 1343.8 | 1124.9 | 7.79
338.15 K, x1 = 0.818 | 1368.47 | 1133 | 9.83
338.15 K, x1 = 0.9 | 1382.15 | 1137.6 | 11.28
338.15 K, x1 = 1 | 1396.35 | 1142.7 | 13.94
